Measurements taken from patent US20240197683A1 (JIANGSU UNIVERSITY, priority 2023, published 2024).
Counter-ions that a name gives are not always drawn. Like-named read-outs stand apart in the source and are kept apart here.

How the values were obtained:
[1] = tested on: IL-6, IL-1β and TNF-α in mouse serum; experiment: Inflammatory factors in blood of mice with sepsis at different time points; assay type: in vivo
[2] = tested on: mice with sepsis-related acute lung injury; experiment: Sepsis-related acute lung injury in mice (BALF, leakage, arterial oxygen); assay type: in vivo
Excerpt: Comparisons of data between the four groups are of statistical significance.
Changes in the protein content of mouse BALF, the Evans blue content and the wet/dry weight ratio are shown. […] There is a downward trend in the arterial partial pressure of oxygen in all the injury group mice relative to the normal mice.

[3] = tested on: TLR-4/MyD88/NF-κB signaling pathway; experiment: Related gene expression in lung tissues of mice with sepsis; assay type: in vivo; details: after treatment and prevention
Excerpt: The differences are of statistical significance.

[4] = tested on: mice with LPS-induced sepsis; details: 20 mg/kg LPS i.p.; for average survival time: LPS group 28.8±6.22 h
Experimental: Method: A mouse model of sepsis was induced by intraperitoneal injection of different toxic doses of 5 mg/kg, 10 mg/kg and 20 mg/kg LPS, and the effects of different doses of LPS on the survival rate of mice with sepsis were observed.
Sepsis was induced by intraperitoneal injection of 5 mg/kg, 10 mg/kg and 20 mg/kg LPS. […] Sepsis was induced by intraperitoneal injection of 20 mg/kg LPS.

cytokine-infused rats = details: cited from earlier work
A549 cells = details: co-treatment with TNF-α or H2O2; cited from earlier work
[5] = tested on: mice with LPS-induced sepsis; experiment: Edema in organs (wet/dry weight ratio) of mice with sepsis; assay type: in vivo; details: prevention
[6] = tested on: mice with sepsis-related acute lung injury; experiment: Efficacy of HucMSC-NVs loaded with ergothioneine in sepsis-related acute lung injury; assay type: in vivo; details: FIG. 11 A-C
Excerpt: Referring to FIG. 11, three classical inflammatory factors (IL-1β, IL-6, and TNF-α) in BALF are shown in panels A-C.

[7] = prevention: tail vein injection 1 h before 20 mg/kg LPS i.p., FIG. 3
[8] = treatment: tail vein injection 2 h after 20 mg/kg LPS i.p., FIG. 4

C[N+](C)(C)[C@@H](Cc1c[nH]c(=S)[nH]1)C(=O)[O-] [ergothioneine, (S)-α-Carboxy-N,N,N-trimethyl-2-mercapto-1H-imidazole-4-ethanaminium inner salt]
IL-1β release in blood [1, 7]: significantly reduced
IL-6 release in blood [1, 7]: significantly reduced
IL-6 release in blood [1, 8]: significantly reduced
TNF-α release in blood [1, 8]: significantly reduced
arterial partial pressure of oxygen ([2]; different concentrations of EGT, FIG. 7 G): significantly improved
inflammatory factor levels in BALF (IL-1β, IL-6 and TNF-α) ([2]; four groups with different concentrations of ergothioneine, FIG. 7 A-C): reduced inflammatory factor levels in BALF
TLR-4 gene expression ([3]; FIG. 9 A): significantly down-regulated
MyD88 gene expression ([3]; FIG. 9 B): significantly down-regulated
NF-κB gene expression ([3]; FIG. 9 C): significantly down-regulated
average survival time ([4]; 5 mg/kg ergothioneine): 41.4 ± 10.48 h
average survival time ([4]; 10 mg/kg ergothioneine): 44.4 ± 3.921 h
mortality in mice with sepsis ([4]; FIG. 2): reduced mortality
average survival time ([4]; 50 mg/kg ergothioneine): 46.8 ± 2.68 h
mice died ([4]; prevention, 5 mg/kg ergothioneine): 2 mice
mice died ([4]; prevention, 10 mg/kg ergothioneine): 3 mice
mice died ([4]; prevention, 20 mg/kg ergothioneine): all
mice died ([4]; prevention, 50 mg/kg ergothioneine): 1 mouse
mice died ([4]; treatment, 5 mg/kg ergothioneine): all
mice died ([4]; treatment, 10 mg/kg ergothioneine): all
mice died ([4]; treatment, 20 mg/kg ergothioneine): 4 mice
mice died ([4]; treatment, 50 mg/kg ergothioneine): 3 mice
acute lung injury (cytokine-infused rats): reduce acute lung injury
GSH level (A549 cells): protected the cells from decreases in the GSH level
NF-κB activation (A549 cells): inhibited NF-κB activation
kidney edema [5]: not significantly ameliorated
level of inflammatory factors in BALF (IL-6, TNF-α, IL-1β) [6]: reduced the level of inflammatory factors in BALF
